# Columns and labels:
# [1] = tested on: heavy bleeding secondary to uterine leiomyomata; test: Example 3: bleeding score from daily bleeding calendars; type: in vivo, human
# Method: (§2) The compound was administered using a commercially available nasal sprayer that delivered a 50 μL spray volume. The daily dose was administered by application of 50 μL to each nostril once per day, for a total daily volume of 100 μL. During the 12 week treatment period the patients kept daily bleeding calendars and underwent clinical assessments at scheduled intervals.
# (§3) A 12 week study was performed to establish an effective dose of deslorelin for controlling heavy bleeding secondary to uterine leiomyomata. Forty-one premenopausal women completed the study and are identified as Subject Nos. 1 through 41. The women were divided into test groups for treatment with intranasal deslorelin as follows:
# (§4) For one complete menstrual cycle prior to treatment, each woman completed a daily bleeding calendar. Eligible subjects were then treated with deslorelin at the assigned dosage once per day by intranasal application. During the 12 weeks of daily intranasal administration, each woman kept a daily bleeding calendar, completed quality of life questionnaires, and underwent clinical assessment and laboratory testing.
# [2] = tested on: premenopausal women with uterine leiomyomata; test: Example 3: uterine size (uterine volume from ultrasound); type: in vivo, human
# Method: as §2, §3, §4
# [3] = tested on: ovarian estrogen and progesterone production; test: Example 3: serum hormone levels
# Method: In a first study, deslorelin was administered alone to determine an appropriate dose for treatment of an exemplary benign gynecological disorder, uterine leiomyomata (fibroids). More specifically, the dose appropriate to control the heavy bleeding secondary to uterine leiomyomata was determined. […] The compound was administered using a commercially available nasal sprayer that delivered a 50 μL spray volume. The daily dose was administered by application of 50 μL to each nostril once per day, for a total daily volume of 100 μL. During the 12 week treatment period the patients kept daily bleeding calendars and underwent clinical assessments at scheduled intervals. Clinical assessments included grading of nasal irritation (Table 5A), determination of uterine size (Table 5B), and serum hormone levels (Table 5C).
# Eligible subjects were then treated with deslorelin at the assigned dosage once per day by intranasal application. During the 12 weeks of daily intranasal administration, each woman kept a daily bleeding calendar, completed quality of life questionnaires, and underwent clinical assessment and laboratory testing. […] Clinical assessments included grading of nasal irritation (Table 5A), determination of uterine size (Table 5B), and serum hormone levels (Table 5C).
# [4] = tested on: premenopausal females with uterine fibroids; test: Example 8: change in uterine volume; type: in vivo, human; settings: 6 Months of treatment compared to baseline
# Method: (§1) Premenopausal females (n=265) with uterine fibroids were recruited for participation in a 12 month double blind study. The women were randomly assigned to treatment in one of the following five study arms: Deslorelin at a daily dose of 1 mg was administered intranasally using a conventional metered spray delivery device. The intranasal preparation was a 100 μL daily nasal spray containing 1.0 mg deslorelin. […] Women with uterine fibroids often experience very heavy bleeding (menorrhagia) and uterine enlargement leading to pelvic pain and pressure symptoms. Clinical benefit was assessed by measuring changes in bleeding score (percent of subjects with reduction of bleeding into the normal range) and uterine volume. Shown in Table 9A are the percent of subjects responding (reduction of bleeding into the normal range) after 3 and 6 months of treatment.
# [5] = tested on: bone mineral density of the lumbar spine; settings: in vivo
# Excerpt: Bone mineral density (BMD) of the lumbar spine was obtained by dual-energy X-ray absorptiometry (DEXA) prior to and after six months of drug treatment.
# [6] = tested on: premenopausal females with uterine fibroids; test: Example 8: reduction of bleeding into the normal range; type: in vivo, human; settings: deslorelin 1 mg/day intranasal
# Method: as §1
# [7] = Deslorelin 0.5 mg/day, Baseline
# [8] = Deslorelin 0.5 mg/day, End of Week 4
# [9] = Deslorelin 0.5 mg/day, End of Week 8
# [10] = Deslorelin 0.5 mg/day, End of Week 12
# [11] = Deslorelin 1 mg/day, End of Week 4
# [12] = Deslorelin 1 mg/day, End of Week 8
# [13] = Deslorelin 1 mg/day, End of Week 12
# [14] = Deslorelin 2 mg/day, End of Week 4
# [15] = Deslorelin 2 mg/day, End of Week 8
# [16] = Deslorelin 2 mg/day, End of Week 12
structure (smiles),measurement,setting,value
"CCNC(=O)[C@@H]1CCCN1C(=O)[C@H](CCCN=C(N)N)NC(=O)[C@H](CC(C)C)NC(=O)[C@@H](Cc1c[nH]c2ccccc12)NC(=O)[C@H](Cc1ccc(O)cc1)NC(=O)[C@H](CO)NC(=O)[C@H](Cc1c[nH]c2ccccc12)NC(=O)[C@H](Cc1cnc[nH]1)NC(=O)[C@@H]1CCC(=O)N1 [Deslorelin, (pyro)Pro-His-Trp-Ser-Tyr-DTrp-Leu-Arg-Pro-ethylamide]",Bleeding Score,"[1]; Deslorelin 0.5 mg/day, Baseline Score, 0 no bleeding, 5 normal flow, 10 or greater menorrhagia",10.9
same,Bleeding Score,"[1]; Deslorelin 0.5 mg/day, Weeks 1-4",6.6
same,Bleeding Score,"[1]; Deslorelin 0.5 mg/day, Weeks 5-8",3.5
same,Bleeding Score,"[1]; Deslorelin 0.5 mg/day, Weeks 9-12",2.6
same,Bleeding Score,"[1]; Deslorelin 1 mg/day, Baseline Score",10.8
same,Bleeding Score,"[1]; Deslorelin 1 mg/day, Weeks 1-4",7.8
same,Bleeding Score,"[1]; Deslorelin 1 mg/day, Weeks 5-8",0.4
same,Bleeding Score,"[1]; Deslorelin 1 mg/day, Weeks 9-12",1.7
same,Bleeding Score,"[1]; Deslorelin 2 mg/day, Baseline Score",14.1
same,Bleeding Score,"[1]; Deslorelin 2 mg/day, Weeks 1-4",6.6
same,Bleeding Score,"[1]; Deslorelin 2 mg/day, Weeks 5-8",1.2
same,Bleeding Score,"[1]; Deslorelin 2 mg/day, Weeks 9-12",0.6
same,effectiveness (in words),"[1]; all tested doses (0.5, 1.0, 2.0 mg/day)","partially or completely effective with reduction of bleeding, associated pain, and uterine size"
same,bleeding score (in words),[1]; end of the 12 week study,marked improvement in their bleeding score
same,uterine volume calculated from ultrasound determined dimensions (in words),"[2]; 0.5, 1.0, 2.0 mg/day, 12 weeks",reduction in uterine volume
same,Uterine Size Mean Difference (end of week 12 minus baseline uterine volume),[2]; Deslorelin 0.5 mg/day intranasal,−109.6 cm^3
same,Uterine Size Mean Difference (end of week 12 minus baseline uterine volume),[2]; Deslorelin 1 mg/day intranasal,−63.6 cm^3
same,Uterine Size Mean Difference (end of week 12 minus baseline uterine volume),[2]; Deslorelin 2 mg/day intranasal,−246.5 cm^3
same,Hormone Levels: Estradiol,[3]; [7],173 pg/mL
same,Hormone Levels: Progesterone,[3]; [7],641 ng/dL
same,Hormone Levels: Testosterone,[3]; [7],24 ng/dL
same,Hormone Levels: Estradiol,[3]; [8],47 pg/mL
same,Hormone Levels: Progesterone,[3]; [8],40 ng/dL
same,Hormone Levels: Testosterone,[3]; [8],19 ng/dL
same,Hormone Levels: Estradiol,[3]; [9],79 pg/mL
same,Hormone Levels: Progesterone,[3]; [9],30 ng/dL
same,Hormone Levels: Testosterone,[3]; [9],22 ng/dL
same,Hormone Levels: Estradiol,[3]; [10],66 pg/mL
same,Hormone Levels: Progesterone,[3]; [10],37 ng/dL
same,Hormone Levels: Testosterone,[3]; [10],23 ng/dL
same,Hormone Levels: Estradiol,"[3]; Deslorelin 1 mg/day, Baseline",123 pg/mL
same,Hormone Levels: Progesterone,"[3]; Deslorelin 1 mg/day, Baseline",480 ng/dL
same,Hormone Levels: Testosterone,"[3]; Deslorelin 1 mg/day, Baseline",26 ng/dL
same,Hormone Levels: Estradiol,[3]; [11],51 pg/mL
same,Hormone Levels: Progesterone,[3]; [11],12 ng/dL
same,Hormone Levels: Testosterone,[3]; [11],22 ng/dL
same,Hormone Levels: Estradiol,[3]; [12],95 pg/mL
same,Hormone Levels: Progesterone,[3]; [12],25 ng/dL
same,Hormone Levels: Testosterone,[3]; [12],20 ng/dL
same,Hormone Levels: Estradiol,[3]; [13],30 pg/mL
same,Hormone Levels: Progesterone,[3]; [13],10 ng/dL
same,Hormone Levels: Testosterone,[3]; [13],16 ng/dL
same,Hormone Levels: Estradiol,"[3]; Deslorelin 2 mg/day, Baseline",184 pg/mL
same,Hormone Levels: Progesterone,"[3]; Deslorelin 2 mg/day, Baseline",337 ng/dL
same,Hormone Levels: Testosterone,"[3]; Deslorelin 2 mg/day, Baseline",34 ng/dL
same,Hormone Levels: Estradiol,[3]; [14],14 pg/mL
same,Hormone Levels: Progesterone,[3]; [14],12 ng/dL
same,Hormone Levels: Testosterone,[3]; [14],16 ng/dL
same,Hormone Levels: Estradiol,[3]; [15],31 pg/mL
same,Hormone Levels: Progesterone,[3]; [15],14 ng/dL
same,Hormone Levels: Testosterone,[3]; [15],20 ng/dL
same,Hormone Levels: Estradiol,[3]; [16],30 pg/mL
same,Hormone Levels: Progesterone,[3]; [16],13 ng/dL
same,Hormone Levels: Testosterone,[3]; [16],20 ng/dL
same,Proportion of Initial Volume (uterine volume),[4],0.675
same,Mean Ratio (BMD6 mo/BMDbaseline),[5],0.971
same,% with reduction of bleeding into the normal range,[6]; 3 Months,69%
same,% with reduction of bleeding into the normal range,[6]; 6 Months,92%
